Laboratory results taken from patent US11324216B2, “Methods for controlling root parasitic weeds: inhibitors of seed germination in Striga” (King Abdullah University of Science and Technology, priority 2017, dated 2022).
Where two headings read alike, the source gives them in different places.

Tests used:
[1] = target: T1, ShHTL7 (Striga hermonthica, UniProt A0A0M3PNA2); assay: Yoshimulactone Green (YLG) hydrolysis analysis; assay type: biochemical; settings: for IC50: pre-incubation 30 min, 1 μM YLG 60 min
T1 sequence (A0A0M3PNA2 entry or part of it): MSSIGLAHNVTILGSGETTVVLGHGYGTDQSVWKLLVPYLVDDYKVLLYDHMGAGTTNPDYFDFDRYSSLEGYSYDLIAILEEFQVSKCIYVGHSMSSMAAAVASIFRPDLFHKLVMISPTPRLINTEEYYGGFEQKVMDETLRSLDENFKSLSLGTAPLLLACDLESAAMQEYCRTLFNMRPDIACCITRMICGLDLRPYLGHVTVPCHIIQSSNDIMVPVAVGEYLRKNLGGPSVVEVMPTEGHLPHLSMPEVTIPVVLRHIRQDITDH
Procedure: (§1) For measuring the hydrolysis of YLG in vitro, 10 μg of purified ShHTL7, AtD14 and OsD14 in a reaction buffer (1×PBS) containing 0.1% dimethyl sulfoxide (DMSO) in a total volume of 100 μL in 96-well black plate (Greiner) were used. To measure the fluorescent intensity, SpectraMax i3 (Molecular Devices) with an excitation wavelength of 480 nm and a detection wavelength of 520 nm were used. Purified proteins were mixed with Triton X-100, using serial dilutions with concentrations ranging from 5 μM to 4.87 nM. Proteins were pre-incubated with Tritone X-100 for 30 min, followed by incubation with 1 μM YLG (Tokyo Chemical Industry Co. Ltd., product number E1238) for 60 min. Fluorescence values measured in the void control were subtracted from those obtained in the presence of protein. Curves and IC50 values were plotted using Graph pad (PRISM 6) four-parameter logistic curve.

[2] = target: T1, ShHTL7; assay: Intrinsic Triton X-100 fluorescence binding assay
Procedure: cDNA fragments, encoding the S. hermonthica ShHTL7 or the mutated version S95C (in which the serine in the active triad was changed to cysteine) flanked with BamHI and XhoI restriction sites, were cloned into the pGEX-6P1 (GE Healthcare) expression vector that enables the expression of GST fusion protein, using the corresponding restriction sites, as shown in Table 1 below. The plasmid obtained was then transformed into BL21 (DE3) E. coli cells. Cells were grown in LB medium at 37° C., and protein expression was induced at OD 0.6 at λ=600 nm by adding 150 μM isopropyl β-D-1-thiogalactopyranoside (IPTG). After induction, cultures were grown at 16° C. overnight under shaking. […]
(§2) Purified proteins (at concentrations of 1 nm to 5 μM) were incubated with 1.54 μM of Triton X-100 for 2 h. Since Triton X-100 has an excitation and emission wavelength of 275 nm and 302 nm, fluorescence was measured at the corresponding wavelengths using SpectraMax i3 (Molecular Devices). […] Data were normalized to the background fluorescence from the protein and values obtained in absence of proteins were subtracted, to determine changes in Triton X-100 fluorescence intensity. Kd values were determined by plotting changes in Triton X-100 fluorescence intensity against the concentration of the protein, using the single binding site model implemented in Graph pad (PRISM 6).

[3] = target: T1, ShHTL7; assay: Differential static light scattering (DSLS), aggregation temperature; assay type: binding; settings: following pre-incubation; varying Triton concentrations
Procedure: The specific aggregation temperature, Tagg, was determined using DSLS on the Stargazer system (Harbinger Biotechnology and Engineering Corporation, Markham, Canada). For this purpose, purified protein (1 mg/mL) was overlaid with mineral oil in a clear bottom 384-well black plate (Corning), and temperature was increased from 20 to 95° C. with a ratio of 1° C./min. A CCD camera was used to detect light scattering every 0.5° C. in the presence or absence of varying concentrations of Triton X-100, unraveling X-100 concentration-dependent changes in aggregation temperature (ShHTL7 ΔTagg). Data were normalized, and ΔTagg was plotted against the Triton X-100 concentration. Resulting data were plotted to determine the change in Tagg of ShHTL7 upon binding to Triton X-100 using Graph pad (PRISM 6).

[4] = test system: ShHTL7 L143Y mutant; assay: Yoshimulactone Green (YLG) hydrolysis analysis; assay type: biochemical, Striga hermonthica
[5] = target: T2, OsD14 (Oryza sativa subsp. japonica, UniProt Q10QA5); assay: Yoshimulactone Green (YLG) hydrolysis analysis; assay type: biochemical, rice
T2 construct: made in house
T2 sequence (Q10QA5 1-318): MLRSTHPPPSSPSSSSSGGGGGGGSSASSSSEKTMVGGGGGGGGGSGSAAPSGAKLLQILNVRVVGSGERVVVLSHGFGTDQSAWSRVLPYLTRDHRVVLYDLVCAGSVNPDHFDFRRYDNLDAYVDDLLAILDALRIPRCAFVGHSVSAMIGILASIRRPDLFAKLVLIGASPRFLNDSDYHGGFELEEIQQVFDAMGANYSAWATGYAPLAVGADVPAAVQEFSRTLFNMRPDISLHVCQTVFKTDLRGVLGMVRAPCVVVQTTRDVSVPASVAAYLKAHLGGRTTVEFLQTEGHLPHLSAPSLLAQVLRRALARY
Procedure: as §1, with “Purified proteins were mixed with Triton X-100, using serial dilutions with concentrations ranging from 5 μM to 4.87 nM.” left out

[6] = target: T2, OsD14; assay: Intrinsic Triton X-100 fluorescence binding assay; parameters: species or system rice; settings: OsD14 concentrations up to 10 μM
Procedure: as §2, with “Since” for “Purified proteins (at concentrations of 1 nm to 5 μM) were incubated with 1.54 μM of Triton X-100 for 2 h. Since”

[7] = test system: Striga hermonthica seeds; assay: Striga hermonthica germination assay (GR24-induced); assay type: in vivo
Procedure: Striga hermonthica germination bioassays were carried out using Striga seeds collected from a Sorghum bicolor field in Sudan. About 50-100 dry Striga washed and sterilized seeds were distributed on a 9-mm diameter glass fiber filter paper discs (Sartorius, Goettingen Germany). Discs were then placed in 9-cm diameter petri-dishes (12 discs per petri-dish) on filter paper (Whatman, Maidstone, UK) moistened with 3 mL sterilized water. The petri-dishes were sealed with parafilm, wrapped with aluminum foil and incubated in growth chambers at 30° C. for 10 days for preconditioning. On the 11th day, discs were air dried in laminar flow cabinet and transferred to 9-cm petri-dishes (four discs in each plate), which contained 9-mm diameter glass fiber filter paper rings, moistened with 900 μL sterile MilliQ water. The pre-conditioned Striga seeds were treated with Triton X-100 at concentrations of 15.4 μM (0.001%) and 1.54 μM (0.0001%) along with GR24 at 1 nM, 0.5 nM, 0.25 nM and 0.125 nM respectively. Triton X-100/GR24 mixtures were applied (50 μl per disc) in four replicates. Corresponding volumes of GR24 and sterile MilliQ water were included as positive and negative control, respectively. The petri-dishes were sealed with parafilm, enfolded with aluminum foil and incubated for 48 h at 30° C. The germinated (seeds with radicle emerging through the seed coat) and non-germinated Striga seeds were recorded under a binocular and germination percentage was calculated.

[8] = test system: rice seeds cv. Nipponbare; assay type: in vivo; settings: Striga germination vs rice growth
Procedure: The rice seeds cv. Nipponbare were surface-sterilized using 50 ml (2.5%) sodium hypochlorite with 0.4% of Tween-20 for 15 min. After six subsequent washing steps with sterilized water, the rice seeds were kept in water at 30° C. for overnight imbibition. About 2 ml of dilutions of Triton X-100 at 15.4 μM, 1.54 μM in sterile MilliQ water (control) was added in 24-well plates with six replications. One sterilized rice seed was put in each well and allowed to germinate for 48 h at 30° C. The germinated (radicle emergence) and non-germinated seeds were recorded and germination percentage was calculated. Then same seeds were allowed to grow under light in growth cabinet for another one week. The length of one week old seedlings was measured with a roller and averaged.

[9] = target: T3, AtD14 (Arabidopsis thaliana, UniProt Q9SQR3); assay: Yoshimulactone Green (YLG) hydrolysis analysis; assay type: biochemical, A. thaliana
T3 construct: made in house
T3 sequence (Q9SQR3 1-267): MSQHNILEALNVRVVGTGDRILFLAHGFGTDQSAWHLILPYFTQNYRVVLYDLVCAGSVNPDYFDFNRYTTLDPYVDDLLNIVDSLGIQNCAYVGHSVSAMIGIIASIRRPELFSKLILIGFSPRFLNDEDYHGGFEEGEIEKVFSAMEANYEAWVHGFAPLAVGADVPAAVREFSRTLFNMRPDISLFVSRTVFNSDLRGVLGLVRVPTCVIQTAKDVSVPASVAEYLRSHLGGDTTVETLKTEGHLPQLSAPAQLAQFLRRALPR
Procedure: as §1, with “Purified proteins were mixed with Triton X-100, using serial dilutions with concentrations ranging from 5 μM to 4.87 nM.” left out

[10] = target: T3, AtD14; assay: Intrinsic Triton X-100 fluorescence binding assay; parameters: species or system A. thaliana; settings: AtD14 concentrations up to 10 μM
Procedure: as §2, with “Since” for “Purified proteins (at concentrations of 1 nm to 5 μM) were incubated with 1.54 μM of Triton X-100 for 2 h. Since”

[11] = target: T1, ShHTL7; settings: A. thaliana line expressing ShHTL7; cited from earlier work
[12] = target: T1, ShHTL7; settings: read-out: Kd of ShHTL7 and GR24

CC(C)(C)CC(C)(C)c1ccc(OCCO)cc1 [4-ter-octylphenol Monoethoxylate]
IC50 [1]: 9200 ± 3200 nM

CC(C)(C)CC(C)(C)c1ccc(OCC(=O)O)cc1 [2-[4-(2,4,4-trimethylpentan-2-yl)phenoxy]acetic acid]
Inhibitory effect on ShHTL7 catalyzed hydrolysis of YLG ([1]; in words): clear inhibitory effect
IC50 [1]: 1500 ± 410 nM

CC(C)(C)CC(C)(C)c1ccc(OCCOCCO)cc1 [4-ter-octylphenol diethoxylate]
IC50 [1]: 7500 ± 2100 nM

polyethylene glycol tert-octylphenyl ether [Triton X-100]
Affinity of Triton for ShHTL7 relative to GR24 ([2]; Kd 31 nM vs Kd 440 nM): about ten times higher affinity
Kd ([2]; following pre-incubation 2 h or more, intrinsic Triton fluorescence, read-out: Kd between Triton and ShHTL7): 31 nM
Aggregation temperature (Tagg) of ShHTL7 [3]: aggregation temperature increases in a Triton concentration-dependent manner
Inhibition of YLG hydrolysis by ShHTL7 L143Y mutant [4]: failed to inhibit
IC50 [1]: 470 ± 110 nM
Inhibition of YLG hydrolysis by OsD14 ([5]; 10 μM Triton): around 10%
Effect on YLG hydrolysis by OsD14 ([5]; up to 0.5 μM Triton): did not affect
Change in Triton fluorescence with OsD14 [6]: No change in Triton fluorescence
Inhibition of GR24-induced S. hermonthica germination ([7]; 1.54 μM Triton X-100): significantly inhibiting
Inhibition of GR24-induced S. hermonthica germination ([7]; 15.4 μM Triton X-100): significantly inhibiting
Inhibition of S. hermonthica germination ([7]; maximum inhibition): up to 90%
Triton concentrations inhibiting S. hermonthica germination relative to concentrations that affect rice growth [8]: five orders of magnitude lower
Inhibition of YLG hydrolysis by AtD14 ([9]; 10 μM Triton): around 10%
Effect on YLG hydrolysis by AtD14 ([9]; up to 0.5 μM Triton): did not affect
Change in Triton fluorescence with AtD14 [10]: No change in Triton fluorescence

CC1=C[C@H](O/C=C2/C(=O)O[C@@H]3c4ccccc4C[C@H]23)OC1=O [GR24]
GR24 concentration triggering germination [11]: picomolar concentrations
Kd [12]: 440 nM
